The values that follow come from PMC4642645, “Oxacillin sensitization of methicillin-resistant Staphylococcus aureus and methicillin-resistant Staphylococcus pseudintermedius by antisense peptide nucleic acids in vitro” (BMC Microbiology, 2015).

One experiment has as its system MRSP isolates. Particulars: cited from earlier work. The text has this: In the MRSP strain HH-1, PNAs were effective at much lower concentrations compared to NCTC 13142. This is presumably due to differences in cell wall structures, as passage across the cell wall is considered to be the main limiting factor for PNA efficacy. Another indication of cell wall differences is that scrambled PNAs affected cell viability of HH-1 without affecting transcript levels of mecA or ftsZ (i.e. non-specific toxic effect).

Experiment [1] has as its system NCTC 13142. Description: Oxacillin sensitization viable count assay (CFU on oxacillin plates). The experiment is classed as cell-based, Staphylococcus aureus (MRSA). Particulars: 6 h, plated on 16 μg/ml oxacillin, n = 3; for CFU reduction of NCTC 13142: 7.5 μM PNA, ratio to untreated control, mean. As to the method: (§1) The viable count assay is more sensitive than the broth assay and was used to assess the effects of PNAs that performed well in the initial screen described above. In the viable count assay, 5 × 10^5 CFU/ml per well of culture was treated either with 2.5, 5 and 7.5 μM of PNA for NCTC 13142, or 1, 2.5 and 5 μM of PNA for HH-1 in MHB at 35 °C for 6 h. […] Agar plates were incubated at 35 °C for 24 h, and dilutions resulting in 30–300 colonies per plate were used to determine the viable count. Experimental repeats were carried out on separate days, and reductions in CFU of treated cultures were normalized to CFU of the untreated control culture on the day. Statistical analysis of CFU reductions was carried out with the paired Student’s t-Test in Microsoft Excel.

Experiment [2] relates to NCTC 13142. Description: Growth inhibition assay (OD550 growth curves). The experiment is classed as cell-based, Staphylococcus aureus (MRSA). The following applies: NCTC 13142, MHB with 6 μg/ml oxacillin, PNA 0–7.5 μM, 35 °C, 6 h, OD550, n = 3. The protocol: (§2) Anti-ftsZ PNAs were tested for effects on growth. Overnight MHB cultures were adjusted to 5 × 10^5 CFU/ml per well of a 96 well plate in MHB supplemented with 6 μg/ml oxacillin as described above. Anti-ftsZ PNA was added to final concentrations of 0, 1, 2.5, 5, 7.5 μM and incubated in a microplate reader (Spectramax 340PC, Molecular Devices) at 35 °C for 6 h. The optical density of the cultures was monitored at 550 nm with readings every 5 min after shaking for 5 s.

The test system of experiment [3] is NCTC 13142. Description: Light microscopy of Gram stained cells (cell morphology). The experiment is classed as cell-based, Staphylococcus aureus (MRSA). The following applies: NCTC 13142, 7.5 μM PNA, 6 h at 35 °C, 1000 × magnification. As to the method: (§3) Bacterial cultures were treated with anti-ftsZ PNA Z46 in broth as described in the viable count assay. After 6 h at 35 °C, cultures were pelleted, washed once in PBS, and re-suspended in 1/10 of original volume of the culture in PBS. Ten microliter aliquots were heat-fixed, Gram stained, and viewed under a light microscope (Olympus BX60) at 1000 × magnification. Images were captured using the Image-Pro Plus 5.0 (MediaCybernetics), and counting of purple and pink cells were carried out using ImageJ 1.44o (National Institute of Health, USA).

Experiment [4] relates to HH-1. Kind of experiment: Growth inhibition assay (OD550 growth curves). The experiment is classed as cell-based, Staphylococcus pseudintermedius (MRSP). Particulars: HH-1, MHB with 6 μg/ml oxacillin, PNA 0–7.5 μM, 35 °C, 6 h, OD550, n = 3. As to the method: as §2
Experiment [5] concerns HH-1. Description: Light microscopy of Gram stained cells (cell morphology). The experiment is classed as cell-based, Staphylococcus pseudintermedius (MRSP). The following applies: HH-1, 2.5 μM PNA, 6 h at 35 °C, 1000 × magnification. As to the method: as §3
Experiment [6] relates to ftsZ mRNA. Kind of experiment: ftsZ mRNA level by RT-qPCR. The experiment is classed as cell-based, Staphylococcus aureus (MRSA) NCTC 13142. Particulars: NCTC 13142, 7.5 μM PNA, no oxacillin, compared to untreated or scrZ-treated cells, n = 3. The protocol: (§4) Growth of cultures in a 96 well plate was monitored by reading the optical density at 550 nm every 5 min, after shaking for 5 s in a microplate reader (Spectramax 340PC, […]). Cultures were harvested when the untreated control culture increased in OD550 ≈ 0.1. Cultures with the same PNA treatment but in different wells across the 96 well plate were pooled for total RNA extraction and DNase I treatment (Ribopure™ Bacteria kit, Life Technologies). RNA was checked for gDNA contamination by qPCR using gyrA primers (Additional file 1: Table S1) and SsoFast™ EvaGreen® Supermix (Bio-Rad) before cDNA synthesis using 50 ng RNA and iScript™ Reverse Transcription Supermix (Bio-Rad). Samples of cDNA were diluted 10-fold and 4 μl used in each qPCR reaction. […]
(§5) Primer pairs for qPCR were designed by Primer3 with a Tm of 60 °C and product sizes of 100–200 bp (Additional file 1: Table S1). […] Primer efficiencies were determined using 10-fold serial dilutions of cDNA (10 pg-1 μg). […]
(§6) Total RNA and cDNA were prepared as described above. Raw Cq values were analysed in qbase + (Biogazelle, Belgium) with user-defined primer efficiencies (Additional file 1: Table S1) and expression stabilities (M value) of each candidate reference gene fabD, gyrA, proC, pta, pyk, rho, sodA, and tpiA were calculated as the average pairwise variation for each gene with all other tested genes. […]

In experiment [7] the test system is ftsZ mRNA. Kind of experiment: ftsZ mRNA level by RT-qPCR. The following applies: HH-1, 2.5 μM PNA, no oxacillin, compared to untreated or scrZ-treated cells, n = 3. The experiment is classed as cell-based, Staphylococcus pseudintermedius (MRSP) HH-1. The protocol:
as §4, §5, §6

Experiment [8] concerns HH-1. Kind of experiment: Oxacillin sensitization viable count assay (CFU on oxacillin plates). The experiment is classed as cell-based, Staphylococcus pseudintermedius (MRSP). As to the method:
as §1

Consider “KFFKFFKFFK [(KFF)3K peptide, cell-penetrating peptide (CPP) used as PNA carrier]”, for which the “MIC against MRSP isolates” value with MRSP isolates was 2 to 8 µM.
Consider “KFFKFFKFFK-eg1-AATTACTATA-NH2 [scrZ, scrambled control PNA for anti-ftsZ PNAs conjugated to the (KFF)3K peptide]”, for which, in the experiment on NCTC 13142 [1], the “CFU reduction of NCTC 13142” value stood at 44%. Further, the “Concentration that inhibited growth” value with NCTC 13142 [2] is “not growth inhibitory”; with HH-1 [4], 2.5 µM. Moreover, the “Cell morphology after Gram stain” value in the experiment with NCTC 13142 [3] and with HH-1 [5] was “appeared normal” throughout.
With “KFFKFFKFFK-eg1-TAACATTTAA-NH2 [Z46, anti-ftsZ PNA (−4 to +6) conjugated to the (KFF)3K peptide]”, the “CFU reduction of NCTC 13142” value with NCTC 13142 [1] worked out at 87%. For the same substance, the “Sensitization to oxacillin (CFU reduction), result in words” value is listed as “significantly sensitized” in the experiment with NCTC 13142 [1] (NCTC 13142, PNA 2.5, 5, 7.5 μM (Z46: 7.5 μM)); “significantly sensitized” in the experiment on HH-1 [8] (HH-1, A73 and scrA 1, 2.5, 5 μM, Z46 0.5, 1, 2.5 μM, 6 h, plated on 16 μg/ml oxacillin, n = 3). Also, the “ftsZ mRNA levels, result in words” value in the experiment with ftsZ mRNA [6] and with ftsZ mRNA [7] was “reduced” each time. Besides, the “Concentration that inhibited growth” value with NCTC 13142 [2] was found to be 7.5 µM; in the experiment with HH-1 [4], 2.5 µM. For the same substance, the “Cell morphology after Gram stain” value in the experiment with NCTC 13142 [3] and with HH-1 [5] was “swollen” in each case. In the experiment on HH-1 [8] (2.5 μM PNA, 6 h at 35 °C, plated on MH agar with 16 μg/ml oxacillin, relative to untreated control), the “MRSP cells killed by oxacillin” value was found to be 95%.
